The supplement of paper PMC10307832

Columns and labels:
Assay in all cases: relative viability (nuclei count vs DMSO), 5 days (fraction); higher = more cells survive
HOP-62 = system: HOP-62
Summary of the method: (§1)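 Lung cancer cell lines were seeded in 1536-well plates and dosed by pin tool the next day, with either a single drug or a fixed anchor-drug dose combined with five library-drug doses (not always all listed) spaced in √10 steps. Five days later, one step fixed the cells and stained their nuclei (final 0.05% Triton X-100, 1% formaldehyde, 1 ug/ml Hoechst), and nuclei were counted on 4× images. Relative viability is the nuclei count in treated wells divided by the count in vehicle wells, and each value is the median of duplicate plates.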

NCI-H838 = system: NCI-H838
Summary of the method: as §1

LU99A = system: LU99A
Summary of the method: as §1

NCI-H1355 = system: NCI-H1355
Summary of the method: as §1

NCI-H1993 = system: NCI-H1993
Summary of the method: as §1

NCI-H1651 = system: NCI-H1651
Summary of the method: as §1

NCI-H2085 = system: NCI-H2085
Summary of the method: as §1

NCI-H2023 = system: NCI-H2023
Summary of the method: as §1

NCI-H358 = system: NCI-H358
Summary of the method: as §1

HCC-44 = system: HCC-44
Summary of the method: as §1

NCI-H650 = system: NCI-H650
Summary of the method: as §1

NCI-H2347 = system: NCI-H2347
Summary of the method: as §1

COR-L23 = system: COR-L23
Summary of the method: as §1

HARA = system: HARA
Summary of the method: as §1

HCC-15 = system: HCC-15
Summary of the method: as §1

NCI-H2126 = system: NCI-H2126
Summary of the method: as §1

UMC-11 = system: UMC-11
Summary of the method: as §1

SW 1573 = system: SW 1573
Summary of the method: as §1

LC-2-ad = system: LC-2-ad
Summary of the method: as §1

EPLC-272H = system: EPLC-272H
Summary of the method: as §1

PC-14 = system: PC-14
Summary of the method: as §1

NCI-H1915 = system: NCI-H1915
Summary of the method: as §1

ABC-1 = system: ABC-1
Summary of the method: as §1

O=c1cc(-c2cccc3c2Sc2ccccc2S3)oc(N2CCOCC2)c1 + CS(=O)(=O)CCNCc1ccc(-c2ccc3ncnc(Nc4ccc(OCc5cccc(F)c5)c(Cl)c4)c3c2)o1 [Lapatinib] (partner 2 µM)
relative viability (HOP-62; first compound 0.08 µM): 0.829
relative viability (HOP-62; first compound 0.253 µM): 1.08
relative viability (HOP-62; first compound 0.8 µM): 1.13
relative viability (HOP-62; first compound 2.53 µM): 0.727
relative viability (HOP-62; first compound 8 µM): 1.07
relative viability (NCI-H838; first compound 0.08 µM): 0.973
relative viability (NCI-H838; first compound 0.253 µM): 1.36
relative viability (NCI-H838; first compound 0.8 µM): 0.844
relative viability (NCI-H838; first compound 2.53 µM): 0.969
relative viability (NCI-H838; first compound 8 µM): 0.953
relative viability (LU99A; first compound 0.08 µM): 1.07
relative viability (LU99A; first compound 0.253 µM): 0.954
relative viability (LU99A; first compound 0.8 µM): 1.49
relative viability (LU99A; first compound 2.53 µM): 1.03
relative viability (LU99A; first compound 8 µM): 1.11
relative viability (NCI-H1355; first compound 0.08 µM): 0.963
relative viability (NCI-H1355; first compound 0.253 µM): 1.15
relative viability (NCI-H1355; first compound 0.8 µM): 0.799
relative viability (NCI-H1355; first compound 2.53 µM): 0.956
relative viability (NCI-H1355; first compound 8 µM): 1.05
relative viability (NCI-H1993; first compound 0.08 µM): 0.773
relative viability (NCI-H1993; first compound 0.253 µM): 0.802
relative viability (NCI-H1993; first compound 0.8 µM): 0.849
relative viability (NCI-H1993; first compound 2.53 µM): 0.875
relative viability (NCI-H1993; first compound 8 µM): 0.844
relative viability (NCI-H1651; first compound 0.08 µM): 0.866
relative viability (NCI-H1651; first compound 0.253 µM): 1.06
relative viability (NCI-H1651; first compound 0.8 µM): 0.711
relative viability (NCI-H1651; first compound 2.53 µM): 0.703
relative viability (NCI-H1651; first compound 8 µM): 0.953
relative viability (NCI-H2085; first compound 0.08 µM): 0.636
relative viability (NCI-H2085; first compound 0.253 µM): 0.86
relative viability (NCI-H2085; first compound 0.8 µM): 0.767
relative viability (NCI-H2085; first compound 2.53 µM): 0.703
relative viability (NCI-H2085; first compound 8 µM): 0.644
relative viability (NCI-H2023; first compound 0.08 µM): 0.767
relative viability (NCI-H2023; first compound 0.253 µM): 1.03
relative viability (NCI-H2023; first compound 0.8 µM): 0.748
relative viability (NCI-H2023; first compound 2.53 µM): 0.571
relative viability (NCI-H2023; first compound 8 µM): 0.94
relative viability (NCI-H358; first compound 0.08 µM): 0.407
relative viability (NCI-H358; first compound 0.253 µM): 0.392
relative viability (NCI-H358; first compound 0.8 µM): 0.42
relative viability (NCI-H358; first compound 2.53 µM): 0.424
relative viability (NCI-H358; first compound 8 µM): 0.467
relative viability (HCC-44; first compound 0.08 µM): 1.05
relative viability (HCC-44; first compound 0.253 µM): 1.21
relative viability (HCC-44; first compound 0.8 µM): 0.977
relative viability (HCC-44; first compound 2.53 µM): 0.928
relative viability (HCC-44; first compound 8 µM): 1.14
relative viability (NCI-H650; first compound 0.08 µM): 0.819
relative viability (NCI-H650; first compound 0.253 µM): 0.84
relative viability (NCI-H650; first compound 0.8 µM): 1.16
relative viability (NCI-H650; first compound 2.53 µM): 0.706
relative viability (NCI-H650; first compound 8 µM): 0.842
relative viability (NCI-H2347; first compound 0.08 µM): 0.978
relative viability (NCI-H2347; first compound 0.253 µM): 1.09
relative viability (NCI-H2347; first compound 0.8 µM): 1.02
relative viability (NCI-H2347; first compound 2.53 µM): 1.04
relative viability (NCI-H2347; first compound 8 µM): 1.19
relative viability (COR-L23; first compound 0.08 µM): 1.1
relative viability (COR-L23; first compound 0.253 µM): 1.67
relative viability (COR-L23; first compound 0.8 µM): 0.962
relative viability (COR-L23; first compound 2.53 µM): 0.836
relative viability (COR-L23; first compound 8 µM): 1.09
relative viability (HARA; first compound 0.08 µM): 0.662
relative viability (HARA; first compound 0.253 µM): 0.751
relative viability (HARA; first compound 0.8 µM): 0.562
relative viability (HARA; first compound 2.53 µM): 0.632
relative viability (HARA; first compound 8 µM): 0.719
relative viability (HCC-15; first compound 0.08 µM): 0.885
relative viability (HCC-15; first compound 0.253 µM): 1.02
relative viability (HCC-15; first compound 0.8 µM): 0.873
relative viability (HCC-15; first compound 2.53 µM): 0.82
relative viability (HCC-15; first compound 8 µM): 0.988
relative viability (NCI-H2126; first compound 0.08 µM): 0.715
relative viability (NCI-H2126; first compound 0.253 µM): 0.801
relative viability (NCI-H2126; first compound 0.8 µM): 0.679
relative viability (NCI-H2126; first compound 2.53 µM): 0.679
relative viability (NCI-H2126; first compound 8 µM): 0.796
relative viability (UMC-11; first compound 0.08 µM): 1.02
relative viability (UMC-11; first compound 0.253 µM): 1.28
relative viability (UMC-11; first compound 0.8 µM): 1.21
relative viability (UMC-11; first compound 2.53 µM): 0.78
relative viability (UMC-11; first compound 8 µM): 1.29
relative viability (SW 1573; first compound 0.08 µM): 1.02
relative viability (SW 1573; first compound 0.253 µM): 1.28
relative viability (SW 1573; first compound 0.8 µM): 0.935
relative viability (SW 1573; first compound 2.53 µM): 1.05
relative viability (SW 1573; first compound 8 µM): 1.24
relative viability (LC-2-ad; first compound 0.08 µM): 0.963
relative viability (LC-2-ad; first compound 0.253 µM): 1.04
relative viability (LC-2-ad; first compound 0.8 µM): 1.06
relative viability (LC-2-ad; first compound 2.53 µM): 0.921
relative viability (LC-2-ad; first compound 8 µM): 0.956
relative viability (EPLC-272H; first compound 0.08 µM): 0.935
relative viability (EPLC-272H; first compound 0.253 µM): 0.841
relative viability (EPLC-272H; first compound 0.8 µM): 0.867
relative viability (EPLC-272H; first compound 2.53 µM): 0.779
relative viability (EPLC-272H; first compound 8 µM): 1.2
relative viability (PC-14; first compound 0.08 µM): 0.291
relative viability (PC-14; first compound 0.253 µM): 0.388
relative viability (PC-14; first compound 0.8 µM): 0.245
relative viability (PC-14; first compound 2.53 µM): 0.245
relative viability (PC-14; first compound 8 µM): 0.308
relative viability (NCI-H1915; first compound 0.08 µM): 1.02
relative viability (NCI-H1915; first compound 0.253 µM): 1.04
relative viability (NCI-H1915; first compound 0.8 µM): 1.13
relative viability (NCI-H1915; first compound 2.53 µM): 0.905
relative viability (NCI-H1915; first compound 8 µM): 1.06
relative viability (ABC-1; first compound 0.08 µM): 1.04
relative viability (ABC-1; first compound 0.253 µM): 1.2
relative viability (ABC-1; first compound 0.8 µM): 1.28
relative viability (ABC-1; first compound 2.53 µM): 0.991
relative viability (ABC-1; first compound 8 µM): 1.41
